# From US12070454B1, “Anesthetic nerve block and method” (PFOF LLC, priority 2022, dated 2024)
# Several values for one entry are separate records, joined by “and”; a condition that tells them apart may be missing. Identical values can stand only once.
# How the values were obtained:
# axolemma or node = tested on: axolemma or node
# Experimental: It is this small amount of bupivacaine within the axolemma/node that results, primarily, in continuing neural blockade for periods of 120 hours or more.
# target nerve = assay: ALALA-carbonate nerve block by injection of Solution 1 and Solution 2; assay type: in vivo, human; settings: ALALA-carbonate precipitate in and around the nerve
# Excerpt: As shown in FIGS. 17-23, the establishment of a 5-day peripheral nerve block involves the injection of two separate and sequential solutions to form the ALALA-compound precipitate and crystals in vivo around the nerves for specific nerve blocks. These solutions form the ALALA-compound precipitates and crystals. As the two solutions must be kept separate until injection over the specific nerve is accomplished, the solutions may then react to form the ALALA-compound precipitate and crystals in vivo. This separation of solutions by two different means: • 1. The sequential injection of two separate solutions through a single needle (FIGS. 17-19 and 22). • 2. The simultaneous injection of both solutions through a bifurcated needle where mixing occurs only at the needle tip(s) opposite the target nerve (FIGS. 20 and 21). These alkaline solutions are: • 1. […] Epinephrine 86 is present at a concentration of ˜3 mcg/ml, primarily as a standard vascular marker producing mild tachycardia if leakage into the vascular system occurs. When Solution 1 is given, a pulse-oximeter or EKG rhythm strip must be run to confirm no tachycardia for 2 minutes to ensure Solution 1 has no leakage into the vascular system with a resulting tachycardia greater than 15% above baseline pulse. […] Solution 2 is injected only if no increase impulse rate greater than 15% above baseline is determined within 2 minutes. • 3. […]
# peripheral nerve [1] = settings: cited from earlier work; for extension of standard peripheral nerve block: dexmedetomidine and clonidine, along with corticosteroids; for duration of peripheral nerve block, local anesthetic alone: no adjuvant or steroid; for life of peripheral nerve blocks and tissue infiltrates with adjuvants: with epinephrine, corticosteroids, α2-agonists
# [2] = cited from earlier work; for pH at which precipitates began to form: combined with NaOH
# peripheral nerve [3] = assay type: in vivo, human
# Excerpt: The mass of ALALA drug precipitated around the peripheral nerve or infiltrated tissue causes the intraneural metabolic mechanism transforming unionized to ionized ALALA drug to get overwhelmed. Thus, the normal transformation to ionized ALALA drug gets delayed to the point it takes 5 days or longer for all the ALALA drug to be metabolized and the block to wear off.
# [4] = assay type: physicochemical; settings: for drug mass remaining in solution: 0.375 %; for drug mass precipitated: equal volumes of 8.4% NaHCO3 and 0.75% anesthetic solution, in vitro
# Excerpt: Because of their elevated pKa's, ALALA drugs will form a crystalline precipitate 82 in an alkaline environment, both intra-axonally and extra-axonally (at the nodes of Ranvier 20 in A-delta fibers and generally around the axon in C-fibers). […] It is anticipated levo-bupivacaine will react similarly to levo-ropivacaine at 96.5% conversion to precipitate and crystallization when this drug becomes available.
# NaHCO3 in Solution 1, when mixed with bupivacaine, levo-bupivacaine, or ropivacaine of Solution 2, will cause these drugs to immediately precipitate into crystals in this alkaline solution.
# As discovered in our laboratory, 8.4% NaHCO3, when combined in vitro with bupivacaine or ropivacaine, results in precipitates of 93.5% and 96.5% respectively of the parent ALALA drug. […] Controlling the pH of the final combination of all these drugs and bases more efficiently controls the percentage of ALALA converted to precipitate and crystals and thereby the duration of the resulting nerve block.
# [5] = Test-tube combination of levobupivacaine with NaHCO3 versus molar prediction; assay type: physicochemical
# Excerpt: In a test-tube with one mole of ropivacaine or levobupivacaine reacting with one mole of NaHCO3, a much higher percentage of ropivacaine or levobupivacaine is converted to the ALALA-bicarbonate precipitate than with racemic bupivacaine. Testing with levobupivacaine with NaHCO3 it was established that, levobupivacaine combines with NaHCO3 much more readily than molar predictions indicated. Where molar quantities predicted a 57.7% combination, an 83.9% combination occurred. Where another molar quantity predicted an 86.5% combination, a 94.0% combining of levobupivacaine and NaHCO3 occurred. Thus levo-enantiomers of the ALALA drugs are the preferred forms to be used to create these ALALA-bicarbonate precipitates.
# [6] = Precipitation of local anesthetics with increasing pH (NaOH) or corticosteroids; assay type: physicochemical; settings: alkaline solution
# [7] = cited from earlier work
# [8] = humans; cited from earlier work
compound,measurement,setting,value
"CCCCN1CCCCC1C(=O)Nc1c(C)cccc1C (racemic) [bupivacaine, (RS)-1-butyl-N-(2,6-dimethylphenyl)piperidine-2-carboxamide]",fraction penetrating the axolemma or node before precipitation,axolemma or node,approximately 11.9%
same,duration of neural blockade / analgesia,target nerve,≥ 120 h
same,extension of standard peripheral nerve block,peripheral nerve [1],~50%
same,"duration of peripheral nerve block, local anesthetic alone",peripheral nerve [1],~12 h and 16 h
same,life of peripheral nerve blocks and tissue infiltrates with adjuvants,peripheral nerve [1],~24 h
same,pH at which precipitates began to form,[2],7.7 pH
same,duration of block achieved,"peripheral nerve [3]; 225 mg bupivacaine dose, single volunteer",5 days
same,depot as percentage of the dose injected,"peripheral nerve [3]; human, in vivo",7.163%
same,drug mass remaining in solution,[4],7.47%
same,drug mass precipitated,[4],93.53% and 93.5% and 92.53%
CC1(C)O[C@@H]2C[C@H]3[C@@H]4CCC5=CC(=O)C=C[C@]5(C)[C@@]4(F)[C@@H](O)C[C@]3(C)[C@]2(C(=O)CO)O1 [Triamcinolone],precipitate effect when combined with the ALALA drugs,[2]; Hwang et al.,no precipitate-effects
"CCCCN1CCCC[C@H]1C(=O)Nc1c(C)cccc1C [levobupivacaine, (S)-1-butyl-N-(2,6-dimethylphenyl)-2-piperidinecarboxamide]","duration of peripheral nerve block, local anesthetic alone",peripheral nerve [1],~12 h
same,life of peripheral nerve blocks and tissue infiltrates with adjuvants,peripheral nerve [1],~24 h
same,combining of levobupivacaine and NaHCO3 that occurred,[5]; where another molar quantity predicted an 86.5% combination,94.0%
same,combination of levobupivacaine and NaHCO3 that occurred,[5]; where molar quantities predicted a 57.7% combination,83.9%
CCN(CC)CC(=O)Nc1c(C)cccc1C [lidocaine],pH at which lidocaine precipitates,[6],~11.5 pH
"CCCN1CCCC[C@H]1C(=O)Nc1c(C)cccc1C [ropivacaine, (S)-1-propyl-N-(2,6-dimethylphenyl)piperidine-2-carboxamide]",extension of standard peripheral nerve block,peripheral nerve [1],~50%
same,"duration of peripheral nerve block, local anesthetic alone",peripheral nerve [1],~12 h and 16 h
same,life of peripheral nerve blocks and tissue infiltrates with adjuvants,peripheral nerve [1],~24 h
same,pH at which precipitates began to form,[2],6.9 pH
same,drug mass remaining in solution,[4],3.50%
same,drug mass precipitated,[4],96.5%
CCCCNc1ccc(C(=O)OCCN(C)C)cc1 [tetracaine],pKa relative to bupivacaine,[7],higher than bupivacaine
same,dose at which anaphylactic reactions are known,[8],≤ 10 mg
